Measurements as given in patent US20100203104A1, “DELIVERY SYSTEM FOR RISPERIDONE” (N.V. Organon, priority 2006, published 2010).

Assay: Solubility of risperidone in ethylene vinyl acetate copolymer
Format: physicochemical
Conditions: ethylene vinyl acetate copolymer having a vinyl acetate content of 28%
Protocol: With risperidone is meant 3-[2-[4-(6-fluoro-1,2-benzisoxazol-3-yl)-1-piperidinyl]ethyl]-6,7,8,9-tetrahydro-2-methyl-4H-pyrido[1,2-a]pyrimidin-4-one. […] Solubility is measured as described in Laarhoven, J. A. H., et al. (2002), International Journal of Pharmaceutics 232, page 165.

SMILES: Cc1nc2n(c(=O)c1CCN1CCC(c3noc4cc(F)ccc34)CC1)CCCC2 [Risperidone, 3-[2-[4-(6-fluoro-1,2-benzisoxazol-3-yl)-1-piperidinyl]ethyl]-6,7,8,9-tetrahydro-2-methyl-4H-pyrido[1,2-a]pyrimidin-4-one]
- solubility in ethylene vinyl acetate copolymer: 0.1 wt %
